Data reported in patent US4530903A, “L-2-hydroxy-4-methylpentanoic acid-dehydrogenase, process for obtaining it and its use” (Degussa Aktiengelleschaft, priority 1982, dated 1985).

What was measured:
[1] = target: T1, L-2-hydroxy-4-methylpentanoic acid-dehydrogenase (Weissella confusa, UniProt P14295); test: Dehydrogenation of 2-hydroxycarboxylic acids to 2-ketocarboxylic acids (Example 1), NADH formation at 340 nm; format: biochemical, Lactobacillus confusus; conditions: same enzyme solution
T1 construct: the cells harvesting by centrifugation, solubilizing the product in a suspension buffered to pH 7 and obtaining the enzyme from the extract; made in house; host or cells: Lactobacillus confusus DSM 20196 (natural producer, not recombinant)
T1 sequence (P14295 1-310): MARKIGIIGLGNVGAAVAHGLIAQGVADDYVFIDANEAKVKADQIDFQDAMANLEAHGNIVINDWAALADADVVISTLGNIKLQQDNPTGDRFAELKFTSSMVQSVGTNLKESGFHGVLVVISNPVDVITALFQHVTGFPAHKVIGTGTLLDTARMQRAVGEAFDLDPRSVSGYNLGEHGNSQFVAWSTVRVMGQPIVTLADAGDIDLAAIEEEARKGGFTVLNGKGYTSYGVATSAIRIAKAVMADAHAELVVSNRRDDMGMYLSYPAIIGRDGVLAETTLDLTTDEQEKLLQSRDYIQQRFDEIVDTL
Protocol: (§1) In each case, there was measured the maximal initial reaction velocity Vmax and the KM value. […] In a corresponding manner, the enzymatic activity against other 2-hydroxycarboxylic acids was determined. The concentration of the corresponding 2-hydroxycarboxylic acids in the test was varied between 0.2 and a maximum of 100 millimoles. By increasing the substrate concentration, the maximum beginning reaction velocity Vmax was ascertained. The Michaelis constant (KM value) corresponds to the substrate concentration in moles/liter, at which the reaction velocity V amounts to half the maximum initial reaction velocity. The kinetic constants Vmax and KM were ascertained through non-linear regression of the Michaelis-[…] and are collected in Table 2. […] The relative activities (U/ml) set forth in Table 3 were measured at substrate-final concentrations of 1 millimole, 10 millimoles, and 100 millimoles. In all cases, there was employed the same enzyme solution.

[2] = target: T1, L-2-hydroxy-4-methylpentanoic acid-dehydrogenase; test: Reduction of 2-ketocarboxylic acids to L-2-hydroxycarboxylic acids (Example 2), NADH decrease at 340 nm; format: biochemical, Lactobacillus confusus; conditions: same enzyme solution
Protocol: (§2) In each case, there was again measured the maximal beginning reaction velocity Vmax and the KM value. […] In a corresponding manner there was determined the enzyme activity against other 2-ketocarboxylic acids. The keto acid concentration in each case was varied in the range of 0.01 to a maximum of 10 millimoles. The maximal initial reaction velocity was ascertained through the increase of the substrate concentration. The Michaelis constant (KM value) corresponds to the substrate concentration in moles/liter at which the reaction velocity V is half the maximum initial reaction velocity. The kinetic constants Vmax and KM were ascertained through nonlinear regression of the Michaelis-[…] equation and are summarized in following Table 4. The relative activities (U/ml) stated in Table 5 were measured at substrate final concentrations of 0.1 millimoles, 1 millimole, and 10 millimoles. In all cases, there was employed the same enzyme solution. At 10 millimoles in all substrates there was already noticeable a substrate excess inhibition.

[3] = substrate: CSCCC(O)C(=O)O; test: purified protein, by the assay type; format: biochemical, Lactobacillus confusus; conditions: other: dehydrogenation, pH 8.0, 3 mmoles NAD+, with the enantiomer mixture based on the total concentration
Protocol: as §1

[4] = substrate: CC(C)C[C@H](O)C(=O)O; test: purified protein, by the assay type; format: biochemical, Lactobacillus confusus; conditions: other: dehydrogenation, pH 8.0, 3 mmoles NAD+, with the enantiomer mixture based on the total concentration
Protocol: as §1

[5] = substrate: CCCCC(O)C(=O)O; test: purified protein, by the assay type; format: biochemical, Lactobacillus confusus; conditions: other: dehydrogenation, pH 8.0, 3 mmoles NAD+, with the enantiomer mixture based on the total concentration
Protocol: as §1

[6] = substrate: CCCC(O)C(=O)O; test: purified protein, by the assay type; format: biochemical, Lactobacillus confusus; conditions: other: dehydrogenation, pH 8.0, 3 mmoles NAD+, with the enantiomer mixture based on the total concentration
Protocol: as §1

[7] = substrate: CC(C)CC(O)C(=O)O; test: purified protein, by the assay type; format: biochemical, Lactobacillus confusus; conditions: other: dehydrogenation, pH 8.0, 3 mmoles NAD+, with the enantiomer mixture based on the total concentration
Protocol: as §1

[8] = substrate: CSCCC(=O)C(=O)O; test: purified protein, by the assay type; format: biochemical, Lactobacillus confusus; conditions: other: reduction, pH 7.0, 0.235 millimoles NADH
Protocol: as §2

[9] = substrate: CCCCC(=O)C(=O)O; test: purified protein, by the assay type; format: biochemical, Lactobacillus confusus; conditions: other: reduction, pH 7.0, 0.235 millimoles NADH
Protocol: as §2

[10] = substrate: CCCC(=O)C(=O)O; test: purified protein, by the assay type; format: biochemical, Lactobacillus confusus; conditions: other: reduction, pH 7.0, 0.235 millimoles NADH
Protocol: as §2

[11] = substrate: CC(C)CC(=O)C(=O)O; test: purified protein, by the assay type; format: biochemical, Lactobacillus confusus; conditions: other: reduction, pH 7.0, 0.235 millimoles NADH
Protocol: as §2

[12] = substrate: NC(=O)C1=CN([C@@H]2O[C@H](COP(=O)(O)OP(=O)(O)OC[C@H]3O[C@@H](n4cnc5c(N)ncnc54)[C@H](O)[C@@H]3O)[C@@H](O)[C@H]2O)C=CC1; test: purified protein, by the assay type; conditions: other: pH 7.0, 0.79 millimole 2-keto-4-methylpentanoic acid, NADH 0.01 to 0.33 millimoles
[13] = substrate: NC(=O)c1ccc[n+]([C@@H]2O[C@H](COP(=O)([O-])OP(=O)(O)OC[C@H]3O[C@@H](n4cnc5c(N)ncnc54)[C@H](O)[C@@H]3O)[C@@H](O)[C@H]2O)c1; test: Dependency of the dehydrogenation reaction velocity on the NAD+ concentration; format: biochemical, Lactobacillus confusus; conditions: other: pH 8.0, 6.3 millimoles L-2-hydroxy-4-methylpentanoic acid, NAD+ 0.05 to 7.0 millimoles
From the text: The dependency of the reaction velocity on the NAD^+ concentration was ascertained in a test mixture which contained 0.1 molar phosphate buffer for pH 8.0, 6.3 millimoles of L-2-hydroxy-4-methylpentanoic acid and limiting amounts of enzyme. The NAD^+ concentration was varied in the range of 0.05 to 7.0 millimoles.
The KM value for NAD^+ was ascertained by non-linear regression of the Michaelis-Menten equation and was 3.3×10^-4 moles.

[14] = test concentration 1 mM substrate
[15] = test concentration 10 mM substrate
[16] = test concentration 100 mM substrate
[17] = test concentration 0.1 mM substrate

Molecule	relative activity [1, 14] [U/ml]	relative activity [1, 15] [U/ml]	relative activity [1, 16] [U/ml]	relative activity [2, 17] [U/ml]	relative activity [2, 14] [U/ml]	relative activity [2, 15] [U/ml]	further results
CSCCC(O)C(=O)O (racemic) [DL-2-Hydroxy-4-(methylmercapto)-butyric acid]	0.46	2.7	5.1	–	–	–	–
CC(C)CC(O)C(=O)O (racemic) [DL-2-Hydroxy-4-methylpentanoic acid]	16.6	39.8	2.9	–	–	–	–
CCCCC(O)C(=O)O (racemic) [DL-2-Hydroxyhexanoic acid]	8.4	39.5	3.9	–	–	–	–
CCCC(O)C(=O)O (racemic) [DL-2-Hydroxypentanoic acid]	6.2	31.2	5.3	–	–	–	–
CSCCC(=O)C(=O)O [2-Keto-4-(methylmercapto)-butyric acid]	–	–	–	33	93	53	–
CC(C)CC(=O)C(=O)O [2-Keto-4-methylpentanoic acid]	–	–	–	133	259	144	–
CCCCC(=O)C(=O)O [2-Ketohexanoic acid]	–	–	–	123	301	103	–
CCCC(=O)C(=O)O [2-Ketopentanoic acid]	–	–	–	149	344	161	–
CC(C)C[C@H](O)C(=O)O [L-2-Hydroxy-4-methylpentanoic acid]	28.4	49.7	5.0	–	–	–	–
L-2-hydroxy-4-methylpentanoic acid-dehydrogenase (Weissella confusa) (protein, the cells harvesting by centrifugation, solubilizing the product in a suspension buffered to pH 7 and obtaining the enzyme from the extract; made in house; host or cells: Lactobacillus confusus DSM 20196 (natural producer, not recombinant)) MARKIGIIGLGNVGAAVAHGLIAQGVADDYVFIDANEAKVKADQIDFQDAMANLEAHGNIVINDWAALADADVVISTLGNIKLQQDNPTGDRFAELKFTSSMVQSVGTNLKESGFHGVLVVISNPVDVITALFQHVTGFPAHKVIGTGTLLDTARMQRAVGEAFDLDPRSVSGYNLGEHGNSQFVAWSTVRVMGQPIVTLADAGDIDLAAIEEEARKGGFTVLNGKGYTSYGVATSAIRIAKAVMADAHAELVVSNRRDDMGMYLSYPAIIGRDGVLAETTLDLTTDEQEKLLQSRDYIQQRFDEIVDTL	–	–	–	–	–	–	Km [3]: 11000 µM; Vmax [3]: 1.2 µmol/min/mg; Km [4]: 620 µM; Vmax [4]: 9.8 µmol/min/mg; Km [5]: 4500 µM; Km [6]: 3550 µM; Km [7]: 1400 µM; Vmax [7]: 9.6 µmol/min/mg; Km [8]: 210 µM; Vmax [8]: 28 µmol/min/mg; Km [9]: 120 µM; Km [10]: 250 µM; Km [11]: 70 µM; Vmax [11]: 64 µmol/min/mg; Km [12]: 3.3e-05 mol; Km [13]: 330 µM
